# PMC8667918, “Synthesis and biological evaluation of halogenated phenoxychalcones and their corresponding pyrazolines as cytotoxic agents in human breast cancer” (Journal of Enzyme Inhibition and Medicinal Chemistry, 2021)
# Several values for one entry are separate records, joined by “and”; a condition that tells them apart may be missing. Identical values can stand only once.
# How the values were obtained:
# C6 and Hela cell lines = test system: C6 and Hela cell lines; set-up: method as in PMID 31927336, PMID 22503741; settings: reported chalcone of Figure 1; cited from earlier work
# leukemia = test system: leukemia; set-up: method as in PMID 31927336, PMID 22503741; settings: reported chalcone of Figure 1; cited from earlier work
# MCF-7 = settings: reported chalcones of Figure 1; cited from earlier work
# [1] = test system: MCF-7 breast cancer cell line; assay: MTT assay, cytotoxicity against breast cancer cell line MCF-7; settings: for IC50: Homo sapiens, MCF7, 48 h, read-out: In vitro cytotoxicity IC50 MCF-7; for Selectivity index: ratio of IC50 on normal cells (MCF-10a) to cancer cells (MCF-7)
# Protocol: (§1) Human breast cancer cell line MCF-7 and normal breast cell line MCF-10a were obtained from American type culture collection, MCF-7 cells were cultured using Dulbecco’s Modified Eagle Medium DMEM (Invitrogen/Life Technologies) supplemented with 10% FBS (Hyclone), 10 µg/ml of insulin (Sigma), and 1% penicillin-streptomycin. MCF-10a cell line was cultured using DMEM medium supplemented with 10% FBS, 1% sodium pyruvate, 1% MEM NEAA, 20 ng/ml human epidermal growth factor (HEGF), 10 μg/ml insulin and 0.05 mM hydrocortisone. The cells were incubated at 37 °C in a humidified atmosphere of 5% CO2.
# (§2) The anticancer effect of phenoxychalcones and N-acetylpyrazolines on the viability of both tumour and normal cells was evaluated using МТТ assay as a rapid colorimetric assay. It is based on the ability of mitochondrial dehydrogenases of viable cells to reduce yellow tetrazolium salt MTT to blue formazan in quantities proportional to the number of living cells. The cells were incubated with the medium alone or with the tested compounds at concentrations of 100 µM, 25 µM, 6.25 µM, 1.56 µM and 0.39 µM for 48 h. […] Then, 20 μL MTT solution was added to each well and mixed. After 4 h, the supernatants were removed and 100 μL DMSO was added to each well to dissolve the precipitate. The viability of cells was estimated by measuring the absorbance at 570 nm using a Bioline ELIZA plate reader. The cell viability percentage was calculated based on the absorbance ratio between cell culture treated with the compounds and the untreated control multiplied by 100. Selectivity index (SI) was calculated as the ratio of cytotoxicity (IC50) on normal cells (MCF-10a) to cancer cells (MCF-7).
# [2] = MTT assay, cytotoxicity against normal breast cell line MCF-10a; settings: human; for IC50 at 48 h: MCF-10a normal breast cells
# Protocol: as §1, §2
# [3] = test system: p38 MAPK (phosphorylated and total) in MCF-7 cells; assay: p38 MAPK (phosphorylated and total) ELISA in treated cells; format: cell-based, human; settings: MCF-7, 1.52 µM, vs untreated cells
# Protocol: Measurements were performed using ELISA kits (R&D systems, Minneapolis, MN, USA ELISA (Cat. # KHO0071) and p38 MAPK (Total) ELISA, according to the manufacturer’s instructions.
# MCF-7 cells [4] = assay: Annexin V-FITC/PI apoptosis assay by flow cytometry; format: cell-based, human; settings: 24 h
# Protocol: Apoptosis assessment was carried out by flow cytometry using Annexin V-FITC and propidium iodide double-staining apoptosis detection kit (Biovision, USA) according to the manufacturer instructions. Annexin V is a protein with high affinity for phosphatidylserine (PS). The latter is a cell membrane component that translocate from the inner face of the plasma membrane to the cell surface soon after initiating apoptosis. […] The cells were then collected by centrifugation and re-suspended in 500 μL of binding buffer. Annexin V-FITC and PI double staining was performed by adding 5 μL of Annexin V-FITC and 5 μL of PI. The cells were then incubated in dark, at room temperature for 5 min. After incubation, cell fluorescence was evaluated using FacsCalibur (BD Biosciences, USA). Dot-plot graphs were used to illustrate the results.
# MCF-7 cells [5] = assay: Intracellular reactive oxygen species (ROS) analysis with H2DCFDA; format: cell-based, human; settings: MCF-7, 1.52 µM
# Protocol: Intracellular ROS was detected by cell-permeable fluorogenic probe H2DCFDA. Cell culture subdivided into three groups. The groups are the negative control (untreated MCF-7 cells), the positive control group (MCF-7 cells treated with H2O2), and test group (MCF-7 cells treated with compound 2c). After removing the culture supernatants, the cells were then incubated in fresh medium with 10 µM H2DCFDA at the dark at 37 °C for 1 h. The cells were washed with PBS buffer, then, harvested and the pellets were suspended in PBS. Samples were analysed ROBONIK P2000 ELISA reader wavelength 450 nm.
# MCF-7 cells [6] = assay: Cell cycle analysis by propidium iodide flow cytometry; format: cell-based, human
# Protocol: The cell cycle analysis was carried out by flow cytometry using ab139418_propidium iodide flow cytometry kit/BD (Abcam, Cambridge, UK) according to the manufacturer instructions. […] After treatment, the cells were washed twice with ice-cold phosphate buffer saline (PBS) and collected by centrifugation. The cells were then fixed using ice-cold 66% (v/v) ethanol, washed with PBS, and re-suspended with 0.1 mg/mL RNase to digest cellular RNA and thus minimise stained RNA in the background. The cells were then stained with […] propidium iodide (PI), a fluorescent molecule with the ability to bind to nucleic acid. PI binds to the DNA in cells in proportion to its amount. As the DNA content is different among cells in different phases of cell cycle, the stage of cell growth can be determined based on fluorescence intensity. Cell fluorescence was evaluated using FacsCalibur (BD Biosciences, USA) and analysed using Cell- Quest software (Becton Dickinson)[41]. Cell cycle analysis of MCF-7 cells without any treatment was used as control.
# [7] = MCF-7, 1.52 µM, in comparison to the control (DMSO)
# [8] = MCF-7, 1.52 µM, relative to control (DMSO)
smiles,measurement,setting,value
O=C(/C=C/c1ccc(Oc2ccc(Cl)cc2)cc1)c1ccc(N2CCOCC2)cc1 [V],activity against C6 and Hela cell lines,C6 and Hela cell lines,Effective against C6 and Hela cell lines
O=C(/C=C/c1ccc(Br)cc1)c1c(O)cccc1OCc1ccccc1 [IV],activity against leukemia,leukemia,Effective against leukemia
CCn1cc(/C=C/C(=O)c2ccc(Br)cc2)c(-c2ccc(OC)cc2)n1 [IX],IC50,MCF-7,18.7 µM
"CC(=O)N1N=C(c2ccc(C)cc2)CC1c1ccc(Oc2ccc(Br)cc2)cc1 (stereo not drawn) [Compound 3c, 1–(5-(4–(4-Bromophenoxy)phenyl)-3-(p-tolyl)-4,5-dihydro-1H-pyrazol-1-yl)ethanone]",melting point,,141 to 143 °C
same,IC50,[1],7.42 ± 0.28 µM
same,Selectivity index,[1],2.63
same,IC50 at 48 h,[2],19.5 ± 0.69 µM
"O=C(C=Cc1ccc(Oc2ccc(Cl)cc2)cc1)c1ccc(Br)cc1 [Compound 2e, 1–(4-Bromophenyl)-3–(4-(4-chlorophenoxy)phenyl)prop-2-en-1-one]",melting point,,143 to 145 °C
same,IC50,[1],44.2 ± 2.16 µM
same,Selectivity index,[1],0.50
same,IC50 at 48 h,[2],22.1 ± 1.08 µM
O=C(/C=C/c1cc(Br)ccc1O)c1ccc(Br)cc1 [VIII],IC50,MCF-7,3.82 ± 0.022 µM
Cc1ccc(C(=O)/C=C/c2cccc(Cl)c2Oc2c([N+](=O)[O-])cc(C(F)(F)F)cc2[N+](=O)[O-])cc1 [II],IC50,MCF-7,0.03 ± 0.002 µM
"CC(=O)N1N=C(c2ccc(C)cc2)CC1c1ccc(Oc2ccc(Cl)cc2)cc1 (stereo not drawn) [Compound 3f, 1–(5-(4–(4-Chlorophenoxy)phenyl)-3-(p-tolyl)-4,5-dihydro-1H-pyrazol-1-yl) ethanone]",melting point,,118 to 120 °C
same,IC50,[1],4.77 ± 0.13 µM
same,Selectivity index,[1],2.55
same,IC50 at 48 h,[2],12.2 ± 0.79 µM
"O=C(C=Cc1ccc(Oc2ccc(Br)cc2)cc1)c1ccc(Br)cc1 [Compound 2b, 3–(4-(4-Bromophenoxy)phenyl)-1–(4-bromophenyl)prop-2-en-1-one]",melting point,,164 to 166 °C
same,IC50,[1],13.3 ± 0.53 µM
same,Selectivity index,[1],1.91
same,IC50 at 48 h,[2],25.3 ± 1.17 µM
"CC(=O)N1N=C(c2ccc(Cl)cc2)CC1c1ccc(Oc2ccc(Cl)cc2)cc1 (stereo not drawn) [Compound 3d, 1–(5-(4–(4-Chlorophenoxy)phenyl)-3–(4-chlorophenyl)-4,5-dihydro-1H-pyrazol-1-yl) ethanone]",melting point,,116 to 118 °C
same,IC50,[1],8.51 ± 0.27 µM
same,Selectivity index,[1],5.37
same,IC50 at 48 h,[2],45.7 ± 1.36 µM
"CC(=O)N1N=C(c2ccc(Br)cc2)CC1c1ccc(Oc2ccc(Cl)cc2)cc1 (stereo not drawn) [Compound 3e, 1–(3-(4-Bromophenyl)-5–(4-(4-chlorophenoxy)phenyl)-4,5-dihydro-1H-pyrazol-1-yl) ethanone]",melting point,,117 to 119 °C
same,IC50,[1],5.02 ± 0.22 µM
same,Selectivity index,[1],2.02
same,IC50 at 48 h,[2],10.1 ± 0.62 µM
Nc1ccc(C(=O)/C=C/c2cccc(Cl)c2)cc1 [VII],IC50,MCF-7,34.2 ± 6.4 µM
COc1ccc(/C=C/C(=O)c2ccc(OC)cc2Oc2cc(OC)c(OC)c(OC)c2)cc1 [I],IC50,MCF-7,3.44 ± 0.19 µM
"Cc1ccc(C(=O)C=Cc2ccc(Oc3ccc(Br)cc3)cc2)cc1 [Compound 2c, 3–(4-(4-Bromophenoxy)phenyl)-1-(p-tolyl)prop-2-en-1-one]",down-regulation of total p38 MAPK,[3],~40%
same,interference with p38 MAPK phosphorylation (decrease of phosphorylated p38 MAPK),[3],~60%
same,fold more active than 2a,[1],5.6 fold
same,fold more active than 2b,[1],8.7 fold
same,IC50,[1],1.52 ± 0.03 µM
same,Selectivity index,[1],15 and 15.24
same,IC50,[2],23.2 ± 0.88 µM
same,"apoptotic cells percentage, early apoptosis","MCF-7 cells [4]; MCF-7, 1.52 µM (IC50)",5.17%
same,"apoptotic cells percentage, late apoptosis","MCF-7 cells [4]; MCF-7, 1.52 µM (IC50)",21.96%
same,percentage necrosis,"MCF-7 cells [4]; MCF-7, 1.52 µM (IC50)",2.28%
same,percentage of total apoptosis,"MCF-7 cells [4]; MCF-7, 1.52 µM (IC50)",29.41%
same,"elevation in late apoptosis, fold more than control","MCF-7 cells [4]; MCF-7, 1.52 µM",57.78 fold
same,"increase in early apoptosis, fold more than control","MCF-7 cells [4]; MCF-7, 1.52 µM",9.0 fold
same,"increase in total apoptosis, fold compared to the control","MCF-7 cells [4]; MCF-7, 1.52 µM",16.24 fold
same,ROS induction higher than control,MCF-7 cells [5],10%
same,phase of cell cycle arrest,"MCF-7 cells [6]; MCF-7, 1.52 µM",G2/M phase
same,cell population %G0/G1,"MCF-7 cells [6]; MCF-7, 1.52 µM (IC50), 24 h",24.92%
same,cell population %G2/M,"MCF-7 cells [6]; MCF-7, 1.52 µM (IC50), 24 h",45.86%
same,cell population %Pre G1,"MCF-7 cells [6]; MCF-7, 1.52 µM (IC50), 24 h",29.41%
same,cell population %S,"MCF-7 cells [6]; MCF-7, 1.52 µM (IC50), 24 h",29.22%
same,augmentation of proportion of cells in the G2/M phase,MCF-7 cells [6]; [7],4.25 fold
same,augmentation of proportion of cells in the pre-G1 phase,MCF-7 cells [6]; [7],16.24 fold
same,decline in the cell population at the G0/G1 phase,MCF-7 cells [6]; [8],54.73%
same,decline in the cell population at the S phase,MCF-7 cells [6]; [8],14.5%
"CC(=O)N1N=C(c2ccc(Br)cc2)CC1c1ccc(Oc2ccc(Br)cc2)cc1 (stereo not drawn) [Compound 3b, 1–(5-(4–(4-Bromophenoxy)phenyl)-3–(4-bromophenyl)-4,5-dihydro-1H-pyrazol-1-yl) ethanone]",melting point,,138 to 140 °C
same,IC50,[1],17.2 ± 0.62 µM
same,Selectivity index,[1],0.67
same,IC50 at 48 h,[2],11.5 ± 0.47 µM
"O=C(C=Cc1ccc(Oc2ccc(Br)cc2)cc1)c1ccc(Cl)cc1 [Compound 2a, 3–(4-(4-Bromophenoxy)phenyl)-1–(4-chlorophenyl)prop-2-en-1-one]",melting point,,150 to 152 °C
same,IC50,[1],8.51 ± 0.16 µM
same,Selectivity index,[1],3.92
same,IC50 at 48 h,[2],33.4 ± 1.34 µM
"CC(=O)N1N=C(c2ccc(Cl)cc2)CC1c1ccc(Oc2ccc(Br)cc2)cc1 (stereo not drawn) [Compound 3a, 1–(5-(4–(4-Bromophenoxy)phenyl)-3–(4-chlorophenyl)-4,5-dihydro-1H-pyrazol-1-yl) ethanone]",melting point,,142 to 144 °C
same,IC50,[1],10.6 ± 0.39 µM
same,Selectivity index,[1],5.29
same,IC50 at 48 h,[2],55.8 ± 1.92 µM
"O=C(C=Cc1ccc(Oc2ccc(Cl)cc2)cc1)c1ccc(Cl)cc1 [Compound 2d, 3–(4-(4-Chlorophenoxy)phenyl)-1–(4-chlorophenyl)prop-2-en-1-one]",melting point,,120 to 122 °C
same,IC50,[1],19.9 ± 0.66 µM
same,Selectivity index,[1],1.67
same,IC50 at 48 h,[2],33.1 ± 1.42 µM
COc1ccc(C(=O)/C=C/c2ccc(Cl)cc2)c(Oc2cc(OC)c(OC)c(OC)c2)c1 [III],IC50,MCF-7,4.39 ± 0.26 µM
"Cc1ccc(C(=O)C=Cc2ccc(Oc3ccc(Cl)cc3)cc2)cc1 [Compound 2f, 3–(4-(4-Chlorophenoxy)phenyl)-1-(p-tolyl)prop-2-en-1-one]",melting point,,136 to 138 °C
same,IC50,[1],1.87 ± 0.02 µM
same,fold more active than 2e,[1]; MCF-7 IC50 compared with chalcone 2e,23.6 fold
same,fold more active than 2d,[1]; MCF-7 IC50 compared with chalcone 2d,10.6 fold
same,Selectivity index,[1],11.03
same,IC50 at 48 h,[2],20.6 ± 0.37 µM
